Target: HDM2 (truncated, residues 17 to 125, containing p53 binding surface) (Homo sapiens (Human), UniProt Q00987)
Test: HDM2 FRET assay (inhibition of binding of FITC labeled p53-site peptide to HDM2)
Description: IC50 DETERMINATIONS: Dose-response curves were plotted from the inhibition data, from 10 point serial dilutions of inhibitory compounds. Concentration of compound was plotted against em520/Cem495 ratio signal. To generate IC50 values, the dose-response curves were fitted to a standard sigmoidal curve and IC50 values were derived by nonlinear regression analysis.

Chain of HDM2 (truncated, residues 17 to 125, containing p53 binding surface) (Q00987 17-125): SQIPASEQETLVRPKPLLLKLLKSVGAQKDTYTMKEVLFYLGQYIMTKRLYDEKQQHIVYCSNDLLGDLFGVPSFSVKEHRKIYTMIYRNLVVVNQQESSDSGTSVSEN

Molecule COC(C)(c1nc2nc(-c3n[nH]c(=O)o3)nc(-c3cncc(Cl)c3)c2n1C[C@H]1CC[C@H](C)CC1)C1CCCC1 (mixture of isomers) [Example 23.72, 5-{6-(5-chloropyridin-3-yl)-8-(1-cyclopentyl-1-methoxyethyl)-7-[(trans-4-methylcyclohexyl)methyl]-7H-purin-2-yl}-1,3,4-oxadiazol-2(3H)-one] has an IC50 (Table 23) of 2.6 nM.

For COc1ccccc1C(C)(OC)c1nc2nc(-c3n[nH]c(=O)o3)nc(-c3cncc(Cl)c3)c2n1C[C@H]1CC[C@H](C)CC1 (mixture of isomers) [Example 23.78, 5-{6-(5-chloropyridin-3-yl)-8-[1-methoxy-1-(2-methoxyphenyl)ethyl]-7-[(trans-4-methylcyclohexyl)methyl]-7H-purin-2-yl}-1,3,4-oxadiazol-2(3H)-one], the IC50 (Table 23) was 8.22 nM.

COc1ccccc1C(C)(OC)c1nc2nc(-c3noc(=O)[nH]3)nc(-c3cncc(Cl)c3)c2n1C[C@H]1CC[C@H](C)CC1 (mixture of isomers) [Example 23.79, 3-{6-(5-chloropyridin-3-yl)-8-[1-methoxy-1-(2-methoxyphenyl)ethyl]-7-[(trans-4-methylcyclohexyl)methyl]-7H-purin-2-yl}-1,2,4-oxadiazol-5(4H)-one] gave an IC50 (Table 23) of 3.8 nM.

With COC1(c2nc3nc(-c4n[nH]c(=O)o4)nc(-c4cncc(Cl)c4)c3n2C[C@H]2CC[C@H](C)CC2)CCOc2cccnc21 (mixture of isomers) [Example 23.90, 5-{6-(5-chloropyridin-3-yl)-8-(4-methoxy-3,4-dihydro-2H-pyrano[3,2-b]pyridin-4-yl)-7-[(trans-4-methylcyclohexyl)methyl]-7H-purin-2-yl}-1,3,4-oxadiazol-2(3H)-one] the IC50 (Table 23) was 7.41 nM.

CC(C)(C)C(C)(F)c1nc2nc(-c3noc(=O)[nH]3)nc(-c3cncc(Cl)c3)c2n1C[C@H]1CC[C@H](C)CC1 (mixture of isomers) [Example 23.91, 3-{6-(5-chloropyridin-3-yl)-8-(1-fluoro-1,2,2-trimethylpropyl)-7-[(trans-4-methylcyclohexyl)methyl]-7H-purin-2-yl}-1,2,4-oxadiazol-5(4H)-one] gave an IC50 (Table 23) of 13 nM.

In the case of C[C@H]1CC[C@H](Cn2c(C3(F)CCOc4cccnc43)nc3nc(-c4n[nH]c(=O)o4)nc(-c4cncc(Cl)c4)c32)CC1 (mixture of isomers) [Example 23.92, 5-{6-(5-chloropyridin-3-yl)-8-(4-fluoro-3,4-dihydro-2H-pyrano[3,2-b]pyridin-4-yl)-7-[(trans-4-methylcyclohexyl)methyl]-7H-purin-2-yl}-1,3,4-oxadiazol-2(3H)-one], the IC50 (Table 23) is reported as 2.45 nM.

Molecule COCC(C)(F)c1nc2nc(-c3n[nH]c(=O)o3)nc(-c3cncc(Cl)c3)c2n1C[C@H]1CC[C@H](C)CC1 (mixture of isomers) [Example 23.106, 5-{6-(5-chloropyridin-3-yl)-8-(1-fluoro-2-methoxy-1-methylethyl)-7-[(trans-4-methylcyclohexyl)methyl]-7H-purin-2-yl}-1,3,4-oxadiazol-2(3H)-one] has an IC50 (Table 23) of 3.93 nM.

COCC(C)(OC)c1nc2nc(-c3noc(=O)[nH]3)nc(-c3cncc(Cl)c3)c2n1C[C@H]1CC[C@H](C)CC1 (mixture of isomers) [Example 23.107, 3-{6-(5-chloropyridin-3-yl)-8-(1,2-dimethoxy-1-methylethyl)-7-[(trans-4-methylcyclohexyl)methyl]-7H-purin-2-yl}-1,2,4-oxadiazol-5(4H)-one] showed an IC50 (Table 23) of 5.37 nM.

Molecule CC(F)(c1ccccc1C#N)c1nc2nc(-c3noc(=O)[nH]3)nc(-c3cncc(Cl)c3)c2n1C[C@H]1CC[C@H](C)CC1 (mixture of isomers) [Example 23.110, 2-{1-[6-(5-chloropyridin-3-yl)-7-[(trans-4-methylcyclohexyl)methyl]-2-(5-oxo-4,5-dihydro-1,2,4-oxadiazol-3-yl)-7H-purin-8-yl]-1-fluoroethyl}benzonitrile] has an IC50 (Table 23) of 0.515 nM.

Molecule CC(c1ccccc1F)c1nc2nc(-c3noc(=O)[nH]3)nc(-c3cncc(Cl)c3)c2n1C[C@H]1CC[C@H](C)CC1 (mixture of isomers) [Example 23.113, 3-{6-(5-chloropyridin-3-yl)-8-[1-(2-fluorophenyl)ethyl]-7-[(trans-4-methylcyclohexyl)methyl]-7H-purin-2-yl}-1,2,4-oxadiazol-5(4H)-one] has an IC50 (Table 23) of 1.39 nM.

Molecule CC(c1ccccc1F)c1nc2nc(-c3n[nH]c(=O)o3)nc(-c3cncc(Cl)c3)c2n1C[C@H]1CC[C@H](C)CC1 (mixture of isomers) [Example 23.114, 5-{6-(5-chloropyridin-3-yl)-8-[1-(2-fluorophenyl)ethyl]-7-[(trans-4-methylcyclohexyl)methyl]-7H-purin-2-yl}-1,3,4-oxadiazol-2(3H)-one] has an IC50 (Table 23) of 2.13 nM.

CC(c1c(F)cccc1F)c1nc2nc(-c3noc(=O)[nH]3)nc(-c3cncc(Cl)c3)c2n1C[C@H]1CC[C@H](C)CC1 (mixture of isomers) [Example 23.115, 3-{6-(5-chloropyridin-3-yl)-8-[1-(2,6-difluorophenyl)ethyl]-7-[(trans-4-methylcyclohexyl)methyl]-7H-purin-2-yl}-1,2,4-oxadiazol-5(4H)-one] gave an IC50 (Table 23) of 2.23 nM.

With CC(c1ccccc1C#N)c1nc2nc(-c3noc(=O)[nH]3)nc(-c3cncc(Cl)c3)c2n1C[C@H]1CC[C@H](C)CC1 (mixture of isomers) [Example 23.116, 2-{1-[6-(5-chloropyridin-3-yl)-7-[(trans-4-methylcyclohexyl)methyl]-2-(5-oxo-4,5-dihydro-1,2,4-oxadiazol-3-yl)-7H-purin-8-yl]ethyl}benzonitrile] the IC50 (Table 23) was 2.38 nM.

C[C@H]1CC[C@H](Cn2c(N3CCOC4CCCCC43)nc3nc(-c4noc(=O)[nH]4)nc(-c4cncc(Cl)c4)c32)CC1 (single isomer, unassigned) [Example 16.51, 3-[6-(5-chloropyridin-3-yl)-7-[(trans-4-methylcyclohexyl)methyl]-8-(octahydro-4H-1,4-benzoxazin-4-yl)-7H-purin-2-yl]-1,2,4-oxadiazol-5(4H)-one] was tested, and the IC50 (Table 16) was 30.2 nM.

Work on C[C@H]1CC[C@H](Cn2c(N3CCOC4CCCCC43)nc3nc(-c4noc(=O)[nH]4)nc(-c4cncc(Cl)c4)c32)CC1 (single isomer, unassigned) [Example 16.52, 3-[6-(5-chloropyridin-3-yl)-7-[(trans-4-methylcyclohexyl)methyl]-8-(octahydro-4H-1,4-benzoxazin-4-yl)-7H-purin-2-yl]-1,2,4-oxadiazol-5(4H)-one] yielded an IC50 (Table 16) of 1 nM.

COC(C)(C)C1CCCN1c1nc2nc(-c3n[nH]c(=O)o3)nc(-c3cccc(Cl)c3)c2n1C[C@H]1CC[C@H](C)CC1 (single isomer, unassigned) [Example 16.70, 5-{6-(3-chlorophenyl)-8-[2-(1-methoxy-1-methylethyl)pyrrolidin-1-yl]-7-[(trans-4-methylcyclohexyl)methyl]-7H-purin-2-yl}-1,3,4-oxadiazol-2(3H)-one] gave an IC50 (Table 16) of 2.29 nM.

With COC(C)(C)C1CCCN1c1nc2nc(-c3n[nH]c(=O)o3)nc(-c3cccc(Cl)c3)c2n1C[C@H]1CC[C@H](C)CC1 (single isomer, unassigned) [Example 16.71, 5-{6-(3-chlorophenyl)-8-[2-(1-methoxy-1-methylethyl)pyrrolidin-1-yl]-7-[(trans-4-methylcyclohexyl)methyl]-7H-purin-2-yl}-1,3,4-oxadiazol-2(3H)-one] the IC50 (Table 16) was 2.47 nM.

For COC(C)(C)C1CCCN1c1nc2nc(-c3noc(=O)[nH]3)nc(-c3cncc(Cl)c3)c2n1C[C@H]1CC[C@H](C)CC1 (single isomer, unassigned) [Example 16.72, 3-{6-(5-chloropyridin-3-yl)-8-[2-(1-methoxy-1-methylethyl)pyrrolidin-1-yl]-7-[(trans-4-methylcyclohexyl)methyl]-7H-purin-2-yl}-1,2,4-oxadiazol-5(4H)-one], the IC50 (Table 16) was 0.985 nM.

In the case of COC(C)(C)C1CCCN1c1nc2nc(-c3noc(=O)[nH]3)nc(-c3cncc(Cl)c3)c2n1C[C@H]1CC[C@H](C)CC1 (single isomer, unassigned) [Example 16.73, 3-{6-(5-chloropyridin-3-yl)-8-[2-(1-methoxy-1-methylethyl)pyrrolidin-1-yl]-7-[(trans-4-methylcyclohexyl)methyl]-7H-purin-2-yl}-1,2,4-oxadiazol-5(4H)-one], the IC50 (Table 16) is reported as 1.97 nM.

C[C@H]1CC[C@H](Cn2c(N3CCOC4CCCCC43)nc3nc(-c4noc(=O)[nH]4)nc(-c4cccc(Cl)c4)c32)CC1 (single isomer, unassigned) [Example 16.77, 3-(6-(3-chlorophenyl)-7-[(trans-4-methylcyclohexyl)methyl]-8-(octahydro-4H-1,4-benzoxazin-4-yl)-7H-purin-2-yl]-1,2,4-oxadiazol-5(4H)-one] showed an IC50 (Table 16) of 29.7 nM.

C[C@H]1CC[C@H](Cn2c(N3CCOC4CCCCC43)nc3nc(-c4noc(=O)[nH]4)nc(-c4cccc(Cl)c4)c32)CC1 (single isomer, unassigned) [Example 16.78, 3-(6-(3-chlorophenyl)-7-[(trans-4-methylcyclohexyl)methyl]-8-(octahydro-4H-1,4-benzoxazin-4-yl)-7H-purin-2-yl]-1,2,4-oxadiazol-5(4H)-one] was tested, and the IC50 (Table 16) was 1.4 nM.

C[C@H]1CC[C@H](Cn2c(N3CCCC4COCCC43)nc3nc(-c4noc(=O)[nH]4)nc(-c4cccc(Cl)c4)c32)CC1 (single isomer, unassigned) [Example 16.119, 3-{6-[3-chlorophenyl)-8-(hexahydro-2H-pyrano[4,3-b]pyridin-1(5H)-yl)-7-[(trans-4-methylcyclohexyl)methyl]-7H-purin-2-yl}-1,2,4-oxadiazol-5(4H)-one] showed an IC50 (Table 16) of 60.9 nM.

C[C@H]1CC[C@H](Cn2c(N3CCCC4COCCC43)nc3nc(-c4n[nH]c(=O)o4)nc(-c4cncc(Cl)c4)c32)CC1 (single isomer, unassigned) [Example 16.122, 5-{6-(5-chloropyridin-3-yl)-8-(hexahydro-2H-pyrano[4,3-b]pyridin-1(5H)-yl)-7-[(trans-4-methylcyclohexyl)methyl]-7H-purin-2-yl}-1,3,4-oxadiazol-2(3H)-one] showed an IC50 (Table 16) of 203 nM.

C[C@H]1CC[C@H](Cn2c(N3CCCC4COCCC43)nc3nc(-c4n[nH]c(=O)o4)nc(-c4cncc(Cl)c4)c32)CC1 (single isomer, unassigned) [Example 16.123, 5-{6-(5-chloropyridin-3-yl)-8-(hexahydro-2H-pyrano[4,3-b]pyridin-1(5H)-yl)-7-[(trans-4-methylcyclohexyl)methyl]-7H-purin-2-yl}-1,3,4-oxadiazol-2(3H)-one] showed an IC50 (Table 16) of 59.1 nM.

From patent US9540377B2, “2,6,7,8 substituted purines as HDM2 inhibitors” (Merck Sharp & Dohme Corp., priority 2013, dated 2017)
